Source: PMC10380488, “Cx43 Hemichannel and Panx1 Channel Modulation by Gap19 and ^10Panx1 Peptides” (International Journal of Molecular Sciences, 2023)
Where “and” joins values, the source holds several entries; their conditions need not be identical. Identical values can stand only once. Entries after “also recorded” stand apart in the source; their conditions may differ.

Columns and labels:
Panx1 channels [1] = target: T1, Panx1 channels (Rattus norvegicus, UniProt P60570); test: Whole-cell patch-clamp, unitary Panx1 channel current activity in C6-Panx1 cells; format: cell-based; details: for nominal open probability (NPo) of Panx1 channels: preincubated 45 min, C6-Panx1, step −30 to +70 mV, 30 s, mean ± SEM, control 0.37 ± 0.02; for reduction of NPo of Panx1 channels: vs control
T1 construct: expressed in transfected cells; host or cells: C6 glioma cells (C6-Panx1), gift of Dr Christian C; Naus
Excerpt: (§1) We used HeLa cells stably transfected with Cx43 (HeLa-Cx43 [56]); endogenous expression of Panx1 is very low or absent in non-transfected HeLa cells. C6 glioma cells stably transfected with Panx1 (C6-Panx1, C-terminally myc-tagged; kind gift of Dr Christian C. Naus, University of British Columbia, Canada) were used for the Panx1 channel studies; Cx43 expression is low or undetectable [61] in these cells. HeLa cells were maintained in Dulbecco’s modified Eagle’s medium (DMEM; Invitrogen, Gent, Belgium), and C6 cells were grown in DMEM:Ham’s F12 (1:1—Invitrogen, Merelbeke, Belgium), all supplemented with 10% fetal bovine serum (FBS), 2 mM glutamine, 10 U/mL penicillin, 10 µg/mL streptomycin and 0.25 µg/mL fungizone. Stable exogenous expressions were maintained by supplementation of 1 and 3 µg/mL puromycin (Sigma-Aldrich, Bornem, Belgium) for HeLa-Cx43 and C6-Panx1 cells, respectively. Stable transfectants were subcultured into puromycin-free medium 2 days prior to experimentation. Cells were maintained at 37 °C and 10% (HeLa-Cx43) or 5% (C6-Panx1) CO2.
(§2) All experimental data were obtained with the patch-clamp technique in whole-cell recording mode on HeLa-Cx43 and C6-Panx1 cells. Extracellular solution was composed of the following (in mM): 150 NaCl, 4 CsCl, 2 CaCl2, 2 MgCl2, 2 pyruvic acid, 5 glucose and 5 HEPES at pH of 7.4, while the pipette solution consisted of the following (in mM): 125 CsCl, 10 sodium aspartate (NaAsp), 0.26 CaCl2, 1 MgCl2, 2 EGTA, 10 tetraethylammonium (TEA)-Cl and 5 HEPES at pH 7.2. The free Ca^2+ concentration of the pipette solution was estimated to be ~50 nM as calculated with WEBMAX (https://somapp.ucdmc.ucdavis.edu/pharmacology/bers/maxchelator/webmaxc/webmaxcS.htm; accessed on 20 September 2020). Whole-cell recording was performed under control conditions and in the presence of Gap19 or ^10Panx1. Gap19 was included in the pipette solution, while ^10Panx1 was added externally and preincubated for 45 min. Recordings were commenced 2 min after establishment of the whole-cell configuration. Currents were recorded with an EPC 7 PLUS patch-clamp amplifier (HEKA Elektronik, Germany). Unitary current activities were elicited by stepping the cells from a holding potential of −30 mV to a membrane potential (Vm) of +70 mV for 30 s. Data were digitized at 4 KHz using an NI USB-6221 data acquisition device (National Instruments, Austin, TX, USA) and WinWCP acquisition software designed by Dr. J. Dempster (University of Strathclyde, United Kingdom). Measured currents were filtered by a 7-pole Bessel low-pass filter at 1 KHz cut-off frequency. Transition analysis was performed as reported in [16]. Unitary channel conductances were determined from transition histograms as well as from all-point histograms and were obtained by fitting their frequencies to Gaussian distributions. Channel opening activity is expressed as nominal open probability NPo, denoting the number of active channels in the patch multiplied by the open probability.
(§3) Data were processed using Clampfit version 11.2 (Molecular Devices, San Jose, USA) and HemiGUI software as previously described. Results are expressed as mean ± SEM (unless otherwise stated), with n giving the number of traces, N the number of cells, and N the number of experiments on different cell culture dishes. Multiple groups were compared by one-way analysis of variance with post-hoc Dunnett’s or Bonferroni multiple comparison tests, making use of GraphPad PRISM 5.0 (GraphPad Software, Inc., La Jolla, CA). Results were considered statistically significant when p ≤ 0.05 (*; # for p ≤ 0.05, **; ## for p ≤ 0.01, ***; ### for p ≤ 0.001, and ****; #### for p ≤ 0.0001).

Cx43 HCs = test: Whole-cell patch-clamp, unitary Cx43 hemichannel current activity in HeLa-Cx43 cells; format: cell-based; details: for nominal open probability (NPo) of Cx43 HCs: preincubated 45 min, HeLa-Cx43, step −30 to +70 mV, 30 s, mean ± SEM, control 0.48 ± 0.02; for reduction of NPo of Cx43 HCs: vs control; for conductance γ of Cx43 HC, subconductance state, transition histogram / unitary conductance γ of Cx43 HC, fully open state, transition histogram: Figure 3B, mean ± SD
Excerpt: as §1, §2, §3

Cx43 or Panx1 channels = details: 100 μM extracellular; HeLa cells expressing Cx43 or Panx1; cited from earlier work
Excerpt: (§4) Connexins and pannexins are two ubiquitous but distinct protein families forming membrane hemichannels (HCs) and channels in the plasma membrane, respectively. They facilitate the exchange of ions and small molecules (MW ≤ 1.5 kDa) between the intracellular and the extracellular compartment upon opening. Among these respective families, connexin-43 (Cx43) and pannexin-1 (Panx1) are the most abundant isotypes in the human body expressed in a wide array of tissues. Panx1 and Cx43 have several common properties, including the following: (i) an analogous tetra-spanning transmembrane topology with ...

Cx46 HC = details: cited from earlier work
Excerpt: as §4

Panx1 channels [2] = target: T1, Panx1 channels; details: 200 µM extracellular; high extracellular K^+; cited from earlier work
Excerpt: as §4

Panx1 channel = details: some evidence; cited from earlier work
Excerpt: The representative traces depicted in Figure 1A (enlarged display in Supplementary Figure S1) show unitary Panx1 current activities evoked by repeated (every 40 s) Vm steps from a holding potential of −30 mV to +70 mV (with a duration of 30 s) in voltage-clamp experiments (using whole-cell patch-clamp recording). Under control conditions, a single channel conductance of ~65 pS was observed as determined from the channel transition histograms shown in Figure 1B, i.e., below the 100 pS range, which is typical for voltage-dependent Panx1 channel-opening activity. We tested the effec ...

[3] = 100 μM ^10Panx1 extracellular, N = 12, n = 88
[4] = 200 μM ^10Panx1 extracellular, N = 11, n = 97

T1 sequence (P60570 whole entry): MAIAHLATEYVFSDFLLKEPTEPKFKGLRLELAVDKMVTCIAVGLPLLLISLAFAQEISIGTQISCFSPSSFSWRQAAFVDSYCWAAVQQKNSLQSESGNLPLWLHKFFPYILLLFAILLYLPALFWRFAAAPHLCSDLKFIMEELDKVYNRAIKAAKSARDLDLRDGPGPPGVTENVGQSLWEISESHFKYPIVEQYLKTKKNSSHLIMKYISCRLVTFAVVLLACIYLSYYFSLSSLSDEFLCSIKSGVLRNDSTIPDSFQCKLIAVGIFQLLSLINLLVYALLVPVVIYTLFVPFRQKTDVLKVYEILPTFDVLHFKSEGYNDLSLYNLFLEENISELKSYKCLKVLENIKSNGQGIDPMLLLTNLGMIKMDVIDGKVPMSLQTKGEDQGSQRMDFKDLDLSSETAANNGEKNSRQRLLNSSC

Sequence: WRQAAFVDSY [^10Panx1]
- flickering frequency (fast-flickering closures) of Panx1 channel (Panx1 channels [1]; 100 µM ^10Panx1 extracellular): 67 Hz
- nominal open probability (NPo) of Panx1 channels (Panx1 channels [1]; 100 μM ^10Panx1 extracellular, N = 11 cells, n = 106 traces): 0.28 ± 0.03
- reduction of NPo of Panx1 channels (Panx1 channels [1]; 100 μM ^10Panx1 extracellular): 26.0% and ~ 25%
- flickering frequency (fast-flickering closures) of Panx1 channel (Panx1 channels [1]; 200 µM ^10Panx1 extracellular): 84 Hz
- nominal open probability (NPo) of Panx1 channels (Panx1 channels [1]; 200 μM ^10Panx1 extracellular, N = 12 cells, n = 116 traces): 0.19 ± 0.01
- reduction of NPo of Panx1 channels (Panx1 channels [1]; 200 μM ^10Panx1 extracellular): 49.5%
- flickering frequency (fast-flickering closures) of Panx1 channel (Panx1 channels [1]; 500 µM ^10Panx1 extracellular): 146 Hz
- nominal open probability (NPo) of Panx1 channels (Panx1 channels [1]; 500 μM ^10Panx1 extracellular, N = 11 cells, n = 76 traces): 0.13 ± 0.02
- reduction of NPo of Panx1 channels (Panx1 channels [1]; 500 μM ^10Panx1 extracellular): 66.0%
- inhibition of Panx1 channel-opening activity (in words) (Panx1 channels [1]; ^10Panx1 extracellular, 100, 200 and 500 µM): Concentration-Dependently Inhibited
- effect on open-state events of Panx1, all-point histograms (Panx1 channels [1]; ^10Panx1 extracellular, 100 and 200 μM, Figure 1C): clearly decreased the frequency of open-state events; also recorded: open-state peaks decreased in height while the closed-state peaks increased
- subconductance gating of Panx1 channels (Panx1 channels [1]; ^10Panx1 extracellular, Figure 1): did not induce the subconductance gating of Panx1 channels
- nominal open probability (NPo) of Cx43 HCs (Cx43 HCs; 100 μM ^10Panx1 extracellular, N = 12 cells, n = 88 traces): 0.30 ± 0.03
- reduction of NPo of Cx43 HCs (Cx43 HCs; 100 μM ^10Panx1 extracellular, significant): 37%
- nominal open probability (NPo) of Cx43 HCs (Cx43 HCs; 200 μM ^10Panx1 extracellular, N = 11 cells, n = 97 traces): 0.08 ± 0.01
- reduction of NPo of Cx43 HCs (Cx43 HCs; 200 μM ^10Panx1 extracellular): ~ 83% and 83%
- nominal open probability (NPo) of Cx43 HCs (Cx43 HCs; 500 μM ^10Panx1 extracellular, N = 8 cells, n = 53 traces): 0.03 ± 0.01
- reduction of NPo of Cx43 HCs (Cx43 HCs; 500 μM ^10Panx1 extracellular): 94%
- conductance γ of Cx43 HC, subconductance state, transition histogram (Cx43 HCs; [3]): 81 ± 29 pS
- unitary conductance γ of Cx43 HC, fully open state, transition histogram (Cx43 HCs; [3]): 202 ± 57 pS
- conductance γ of Cx43 HC, subconductance state, transition histogram (Cx43 HCs; [4]): 78 ± 27 pS
- unitary conductance γ of Cx43 HC, fully open state, transition histogram (Cx43 HCs; [4]): 216 ± 74 pS
- conductance γ of Cx43 HC, all-point histogram (Cx43 HCs; Figure 3C, 100 μM ^10Panx1 extracellular): 201 ± 36 pS
- inhibition of Cx43 HC opening activity (in words) (Cx43 HCs; Gap19 intracellular / ^10Panx1 extracellular, 100-500 μM (Gap19 100–200 μM)): Inhibited; also recorded: concentration-dependent and significant inhibition; also recorded: inhibits Cx43 HCs over the 100–500 µM concentration range
- effect on Cx43 HC gating (fully open state vs subconductance state) (Cx43 HCs; Gap19 intracellular / ^10Panx1 extracellular, from 100 µM): increasing the frequency of subconductance transitions while decreasing the frequency of transitions to the fully open state; also recorded: reduced the propensity of gating to the main open state but increased the incidence of gating to the HC subconductance state
- relative reduction of Cx43 HC function vs Panx1 channel function (selectivity) (Cx43 HCs; ^10Panx1 extracellular, all the concentrations tested (100, 200, 500 μM)): more strongly reduces Cx43 HC function than Panx1 channel function at all the concentrations tested
- selectivity for Cx43 or Panx1 channels (Cx43 or Panx1 channels): good selectivity
- effect on Cx46 HC peak currents (Cx46 HC): partially inhibit Cx46 HC peak currents
- effect on ATP release from Panx1-overexpressing cells (Panx1 channels [2]): inhibits ATP release
- interaction with the pore of the channel protein (Panx1 channel): some evidence pointing to an interaction with the pore of the channel protein
